This note sets out measurements from patent EP0430129A2, “Novel phenylethylene derivatives, processes for preparing the same and intermediates therefor” (TANABE SEIYAKU CO., LTD., priority 1989, dated 1991).

This assay concerns the target T1, Rat Hepatic Microsomal HMG-CoA reductase (HMGR) (Rattus norvegicus, UniProt P51639).
T1 construct: Microsomes prepared from liver of rats administered with cholestyramine; from tissue
T1 sequence (P51639 1-887): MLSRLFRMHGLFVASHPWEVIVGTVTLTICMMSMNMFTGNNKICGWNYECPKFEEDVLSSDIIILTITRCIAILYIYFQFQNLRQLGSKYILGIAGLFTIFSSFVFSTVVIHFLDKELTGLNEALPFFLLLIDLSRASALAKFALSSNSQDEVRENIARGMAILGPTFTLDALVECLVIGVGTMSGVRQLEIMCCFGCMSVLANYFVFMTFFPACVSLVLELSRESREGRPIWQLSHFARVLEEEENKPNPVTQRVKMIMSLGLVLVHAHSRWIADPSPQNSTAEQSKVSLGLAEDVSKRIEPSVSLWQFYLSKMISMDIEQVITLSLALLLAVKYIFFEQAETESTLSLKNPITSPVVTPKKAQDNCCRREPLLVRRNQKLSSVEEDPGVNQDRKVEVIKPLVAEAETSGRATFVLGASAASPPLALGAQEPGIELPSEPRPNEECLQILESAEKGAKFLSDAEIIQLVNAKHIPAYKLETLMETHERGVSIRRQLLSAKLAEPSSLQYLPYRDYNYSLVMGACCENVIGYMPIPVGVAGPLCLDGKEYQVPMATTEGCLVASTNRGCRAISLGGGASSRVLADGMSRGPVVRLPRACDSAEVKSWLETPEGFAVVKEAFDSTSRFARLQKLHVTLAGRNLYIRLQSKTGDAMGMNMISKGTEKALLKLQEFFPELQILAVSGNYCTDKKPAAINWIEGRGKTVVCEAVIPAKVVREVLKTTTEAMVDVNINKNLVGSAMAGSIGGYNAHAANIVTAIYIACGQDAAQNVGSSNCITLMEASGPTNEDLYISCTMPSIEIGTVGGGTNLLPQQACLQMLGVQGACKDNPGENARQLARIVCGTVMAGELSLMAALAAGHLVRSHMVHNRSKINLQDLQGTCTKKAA
In words: Inhibitory activity against rat hepatic microsomal HMG-CoA reductase (14C-HMG-CoA substrate, 14C-mevalonolactone measured by TLC and scintillation counting). The format is biochemical. Particulars: microsomes from liver of rats administered with cholestyramine, incubated for 10 minutes; for inhibition at 1 µM: Concentration of test compound 10^-6 M. How it is done:
Experiment: Inhibitory activity against Rat Hepatic Microsomal HMG-CoA reductase (HMGR)
HMGR activities of microsomes are measured in accordance with the method of N. L. Young et al., Methods in Enzymology, 71, 498 (1981).
Microsomes prepared from liver of rats administered with cholestyramine were mixed with a solution of the compounds to be tested in dimethyl sulfoxide and ¹⁴C-HMG-CoA (substrate). After the mixture was incubated for 10 minutes, the reaction was quenched with 6N hydrochloric acid and the mixture was allowed to stand at 37°C for 15 minutes, followed by centrifugation. The supernatant was spotted on thin layer chromatography (TLC; Kieselgel 60F254 manufactured by Merck) and developed with toluene/acetone (1:1). The spot of ¹⁴C-mevalonolactone was collected and the amount of isotope was measured with a scintillation counter (Type 4640 TRI-CARB. manufactured by Paccard) to calculate an amount of the formed mevalonolactone. By comparing amounts of the formed mevalonolactone in the group treated with test compounds and the control group (without test compounds), HMGR activity inhibition rates of the test compounds were calculated.

On to `O=C(O)C[C@H](O)C[C@H](O)/C=C/C(=C(c1ccc(F)cc1)c1ccc(F)cc1)c1ccccc1` (racemic) [(±)-(3R*,5S*) [r3]], for which at 1 µM the inhibition was 79%. For the same compound, where the note is “Concentration of test compound 10^-4 M”, the inhibition at 100 µM is 96%.
`O=C(O)C[C@H](O)C[C@H](O)/C=C/C(=C(c1ccc(F)cc1)c1ccc(F)cc1)c1ccco1` (single isomer, unassigned) [(-)-(3R*,5S*)] displayed an inhibition at 1 µM of 93%.
